This note sets out measurements from ChEMBL document CHEMBL4359843, “Linear and Rationally Designed Stapled Peptides Abrogate TLR4 Pathway and Relieve Inflammatory Symptoms in Rheumatoid Arthritis Rat Model” (J Med Chem, 2019).

Activity calls are given as the source filed them. The rule behind the calls is not given here. Where a SMILES comes first, the peptide text is derived from it. Bridges are numbered along the chain shown (N, C = ends).

The target in experiment [1] is T1, Toll-like receptor 4 (Mus musculus) (UniProt Q9QUK6).
T1 sequence (whole entry): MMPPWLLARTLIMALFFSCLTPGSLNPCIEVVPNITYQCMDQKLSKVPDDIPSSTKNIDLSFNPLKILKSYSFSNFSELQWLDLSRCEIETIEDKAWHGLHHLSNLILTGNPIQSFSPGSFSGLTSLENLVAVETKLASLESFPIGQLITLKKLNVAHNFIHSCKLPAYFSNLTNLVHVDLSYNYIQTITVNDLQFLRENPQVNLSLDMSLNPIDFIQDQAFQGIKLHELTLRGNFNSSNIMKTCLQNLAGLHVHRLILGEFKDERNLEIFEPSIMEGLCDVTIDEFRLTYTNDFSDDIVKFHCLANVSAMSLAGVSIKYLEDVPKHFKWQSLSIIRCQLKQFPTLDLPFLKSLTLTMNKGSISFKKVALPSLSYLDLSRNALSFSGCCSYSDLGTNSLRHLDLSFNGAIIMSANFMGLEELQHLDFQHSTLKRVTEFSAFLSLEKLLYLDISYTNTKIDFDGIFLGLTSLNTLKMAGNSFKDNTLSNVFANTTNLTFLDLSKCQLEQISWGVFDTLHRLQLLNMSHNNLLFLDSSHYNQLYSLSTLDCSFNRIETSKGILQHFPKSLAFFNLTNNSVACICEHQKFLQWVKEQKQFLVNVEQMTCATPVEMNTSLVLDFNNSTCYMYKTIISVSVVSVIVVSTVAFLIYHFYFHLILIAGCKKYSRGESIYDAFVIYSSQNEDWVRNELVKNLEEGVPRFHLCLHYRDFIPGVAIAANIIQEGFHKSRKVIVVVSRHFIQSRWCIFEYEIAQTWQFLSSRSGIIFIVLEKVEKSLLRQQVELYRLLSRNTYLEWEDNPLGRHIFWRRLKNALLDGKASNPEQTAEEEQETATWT
Nature of the experiment: Antagonist activity at TLR4 in mouse RAW264.7 cells assessed as reduction in LPS-induced cytosolic ROS level at 50 uM by DCF-DA staining based FACS analysis. It counts as cell-based. (In general: Flow cytometry measures light scatter and fluorescence of single cells or particles in a stream.)

Experiment [2] concerns the target T2, Toll-like receptor 4 (Homo sapiens, UniProt O00206). In words: Antagonist activity at TLR4 in human THP1 cells assessed as reduction in LPS-induced JNK phosphorylation at 50 uM after 15 to 30 mins by Western blot analysis. It counts as cell-based.
Experiment [3] addresses T1, Toll-like receptor 4 (Mus musculus). Nature of the experiment: Antagonist activity at TLR4 in mouse RAW264.7 cells assessed as reduction in LPS-induced TNFalpha secretion after 24 hrs by ELISA. In kind it is cell-based. (In an ELISA, binding on a coated surface is turned into a signal by an enzyme label.)
In experiment [4] the target is T2, Toll-like receptor 4. Nature of the experiment: Binding affinity to recombinant human TLR4 using phage displayed compound by Phage-ELISA.
Experiment [5] addresses T2, Toll-like receptor 4. In words: Antagonist activity at TLR4 in human THP1 cells assessed as reduction in LPS-induced ERK phosphorylation at 50 uM after 15 to 30 mins by Western blot analysis. It counts as cell-based. (A western blot detects proteins with antibodies after separation by electrophoresis.)
In experiment [6] the target is T2, Toll-like receptor 4. In words: Antagonist activity at TLR4 (unknown origin) assessed as inhibition of proinflammatory cytokines.
Experiment [7] has as its target T2, Toll-like receptor 4. In words: Binding affinity to recombinant human TLR4 by surface plasmon resonance analysis.
The target in experiment [8] is T1, Toll-like receptor 4 (Mus musculus). Nature of the experiment: Antagonist activity at TLR4 in mouse RAW264.7 cells assessed as reduction in LPS-induced extracellular NO secretion at 5 to 50 uM by spectrophotometric method. It counts as cell-based.
The target in experiment [9] is T2, Toll-like receptor 4. Nature of the experiment: Antagonist activity at TLR4 (unknown origin).
The target in experiment [10] is T2, Toll-like receptor 4. Nature of the experiment: Binding affinity to recombinant human TLR4 assessed as dissociation rate constant up to 200 uM by surface plasmon resonance analysis.
The target in experiment [11] is T2, Toll-like receptor 4. Nature of the experiment: Antagonist activity at TLR4 in human THP1 cells assessed as reduction in LPS-induced IRF3 phosphorylation at 50 uM after 120 to 240 mins by Western blot analysis. In kind it is cell-based.
Experiment [12] addresses T1, Toll-like receptor 4 (Mus musculus). Nature of the experiment: Antagonist activity at TLR4 in mouse RAW264.7 cells assessed as reduction in LPS-induced IL-6 secretion after 24 hrs by ELISA. It counts as cell-based.
The subject of a further experiment is Rattus norvegicus. In words: Antiarthritic activity in Lewis rat model of complete Freund's adjuvant-induced arthritis assessed as reduction in inflammation synovial tissues at 1 nmol/g administered intra-articularly into knee joint after 1 week by Safranin-O staining based histopathological analysis. In kind it is functional, organism-based.
Experiment [13] concerns the target T1, Toll-like receptor 4 (Mus musculus). Nature of the experiment: Antagonist activity at TLR4 in mouse RAW264.7 cells assessed as reduction in LPS-induced p38 phosphorylation at 80 uM after 15 to 30 mins by Western blot analysis. In kind it is cell-based.
Experiment [14] has the same target. In words: Antagonist activity at TLR4 in mouse RAW264.7 cells assessed as reduction in LPS-induced cytosolic ROS level at 80 uM by DCF-DA staining based FACS analysis. It counts as cell-based.
The test system of another experiment is Mus musculus. In words: Antiinflammatory activity in C57BL/6J mouse assessed as reduction in LPS-induced TNFalpha secretion at 70 nmol/g, ip pretreated for 1 hr followed by LPS challenge and measured after 2 hrs by ELISA. It counts as functional, organism-based.
The target in experiment [15] is T1, Toll-like receptor 4 (Mus musculus). Nature of the experiment: Antagonist activity at TLR4 in mouse RAW264.7 cells assessed as reduction in LPS-induced extracellular NO secretion at 20 to 80 uM by spectrophotometric method. It counts as cell-based.
Experiment [16] shares this target. Nature of the experiment: Antagonist activity at TLR4 in mouse BMDM cells assessed as reduction in LPS-induced TNFalpha secretion at 20 to 80 uM after 24 hrs by ELISA. In kind it is cell-based.
For experiment [17], the target named is T2, Toll-like receptor 4. In words: Antagonist activity at TLR4 in human PBMC cells assessed as reduction in LPS-induced JNK phosphorylation at 80 uM after 15 to 30 mins by Western blot analysis. In kind it is cell-based.
The target in experiment [18] is T1, Toll-like receptor 4 (Mus musculus). In words: Antagonist activity at TLR4 in mouse RAW264.7 cells assessed as reduction in LPS-induced JNK phosphorylation at 80 uM after 15 to 30 mins by Western blot analysis. It counts as cell-based.
The target is the same in experiment [19]. In words: Antagonist activity at TLR4 in mouse BMDM cells assessed as reduction in LPS-induced IFNbeta secretion at 20 to 80 uM after 24 hrs by ELISA. It counts as cell-based.
Experiment [20] concerns the target T2, Toll-like receptor 4. Nature of the experiment: Antagonist activity at human TLR4 expressed in HEK-Blue cells assessed as reduction in LPS-induced SEAP activity pre-incubated for 1 hr followed by LPS stimulation and measured after 24 hrs by SEAP assay. In kind it is cell-based.
For experiment [21], the target named is T1, Toll-like receptor 4 (Mus musculus). Nature of the experiment: Binding affinity to TLR4 in mouse RAW264.7 cells assessed as colocalization of TLR4 in plasma membrane at 40 uM preincubated for 1 hr followed by LPS challenge and measured after 30 mins using FITC-labelled compound by Alexafluor-488/Hoechst 33258 staining based immunofluorescence confocal microscopic method. It counts as cell-based.

Another experiment addresses TLR2/TLR6 (Homo sapiens) (UniProt O60603+Q9Y2C9). Nature of the experiment: Antagonist activity at TLR2/6 in human PBMC cells assessed as reduction in FSL-1-induced TNFalpha secretion at 20 to 80 uM after 24 hrs by ELISA. In kind it is cell-based.
Experiment [22] has as its target T1, Toll-like receptor 4 (Mus musculus). Nature of the experiment: Antagonist activity at TLR4 in mouse RAW264.7 cells assessed as reduction in LPS-induced NFkappaB p65 phosphorylation at 80 uM preincubated for 1 hr followed by LPS stimulation and measured after 30 mins by Alexafluor-488/Hoechst 33258 staining based immunofluorescence confocal microscopic method. It counts as cell-based.

T2 sequence (O00206 whole entry): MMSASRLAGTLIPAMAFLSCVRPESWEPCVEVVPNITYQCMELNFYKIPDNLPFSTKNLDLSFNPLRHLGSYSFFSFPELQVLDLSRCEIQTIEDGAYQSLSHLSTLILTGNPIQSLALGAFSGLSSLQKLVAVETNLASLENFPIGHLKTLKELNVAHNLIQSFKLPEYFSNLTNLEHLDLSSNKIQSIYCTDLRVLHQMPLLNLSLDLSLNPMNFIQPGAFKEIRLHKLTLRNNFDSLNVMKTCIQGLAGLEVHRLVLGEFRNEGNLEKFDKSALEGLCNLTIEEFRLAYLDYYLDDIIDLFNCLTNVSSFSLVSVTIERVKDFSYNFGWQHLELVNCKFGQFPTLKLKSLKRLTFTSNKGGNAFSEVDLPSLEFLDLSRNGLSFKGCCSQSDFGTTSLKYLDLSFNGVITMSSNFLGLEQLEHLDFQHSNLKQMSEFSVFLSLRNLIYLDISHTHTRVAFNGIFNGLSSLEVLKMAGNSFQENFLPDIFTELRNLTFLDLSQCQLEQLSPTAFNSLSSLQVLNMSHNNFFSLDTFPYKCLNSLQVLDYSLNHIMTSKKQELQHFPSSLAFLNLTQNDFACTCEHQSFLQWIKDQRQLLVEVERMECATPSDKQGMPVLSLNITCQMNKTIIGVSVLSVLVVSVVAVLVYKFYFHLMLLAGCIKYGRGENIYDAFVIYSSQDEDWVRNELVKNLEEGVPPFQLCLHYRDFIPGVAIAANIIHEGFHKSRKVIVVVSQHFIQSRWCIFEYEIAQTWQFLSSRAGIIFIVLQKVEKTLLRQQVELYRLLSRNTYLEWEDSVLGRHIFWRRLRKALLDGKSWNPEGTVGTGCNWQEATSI

The term IC50 denotes the concentration at which inhibition is half-maximal. Usually koff stands for the rate constant with which the complex falls apart. Turning to `CC[C@H](C)[C@@H]1NC(=O)[C@H](Cc2c[nH]c3ccccc23)NC(=O)[C@H](Cc2c[nH]c3ccccc23)NC(=O)[C@@H](NC(=O)[C@H](CO)NC(=O)[C@H](Cc2ccccc2)NC(=O)[C@@H](NC(=O)CNC(=O)[C@@H](N)CC(C)C)C(C)C)CC(=O)NCCCC[C@@H](C(=O)N[C@@H](CC(C)C)C(=O)N[C@H](C(=O)O)C(C)C)NC1=O` (H-LGVFSDWWIKLV-OH; lactam 6-10), the result (in experiment [1]; on Toll-like receptor 4 [2]; at Toll-like receptor 4 [4]; at Toll-like receptor 4 [5]; in experiment [8]; on Toll-like receptor 4 [11]) was Active. In addition, in the experiment on Rattus norvegicus, the result was Active. In addition, the Activity entry (in experiment [3]; on Toll-like receptor 4 [7]; in experiment [12]) was “Dose-dependent effect” each time. For the same compound, the IC50 on Toll-like receptor 4 [6] stood at 5 µM; at Toll-like receptor 4 [9] it was 25 µM. Also, the koff at Toll-like receptor 4 [10] turned out to be 0.0014 s⁻¹.
As to H-LGVFSSWWIKLV-OH, the outcome (in experiment [13]; in experiment [14]; in the experiment with Mus musculus; in [15]; in experiment [16]; at Toll-like receptor 4 [17]) was Active. For the same compound, the outcome (on Toll-like receptor 4 [4]; in experiment [18]; in experiment [19]; in [21]; in experiment [22]) was Active. Besides, the Activity entry (in experiment [3]; on Toll-like receptor 4 [7]; at Toll-like receptor 4 [20]; in experiment [12]) was “Dose-dependent effect” in each case. The IC50 on Toll-like receptor 4 [6] stood at 20 µM; against Toll-like receptor 4 [9] it was 40 µM. In addition, on Toll-like receptor 4 [10], the koff was found to be 0.0113 s⁻¹. Also, the result at TLR2/TLR6 (Homo sapiens) was inactive.
